Bounds are passed on as bounds.

This assay has as its system YAP-TEAD interaction. The assay is described as follows: SK-HEP-1 reporter assay (8xTEAD responsive elements driving NanoLuc luciferase). It counts as cell-based. The settings on record: Homo sapiens, SK-HEP1, SK-HEP-1 reporter assay. As for the experimental part: To identify inhibitors of YAP-TEAD interaction, 8×TEAD responsive elements driving the NanoLuc® luciferase gene were stably integrated into SK-HEP-1 cells (ECACC #: 91091816).
For the assay, cells were treated in duplicates with the test compounds in a 10-point dose, with the top concentration starting at 30 μM (final concentration in assay). After a 24 hour incubation at 37° C., 95% rH, and 5% CO2, a luciferase substrate/lysis reagent mix (NanoGlo™, Promega) was added to the cells, allowing the quantification of cellular luciferase activity.
Cell Media: The cells were cultured in the following media: MEM, +10% FBS, +1× GlutaMAX, +1 mM Sodium-Pyruvate, +100 μM Non-essential amino acids, +0.1 mg/ml Hygromycin. The media used for the assay was: MEM (w/o Phenol Red), +10% FBS, +1× GlutaMAX, +1 mM Sodium-Pyruvate, +100 μM Non-essential amino acids, +0.5% Pen/Strep
Reagents: The reagents used are listed below:
Cell culture: The cells were examined using an inverted microscope to check for health and cell density. To dissociate adherent cells, the monolayer of cells was washed once with pre-warmed PBS. After removing the PBS, 3 ml pre-warmed Accutase® was added to a F75 flask, dispersed evenly and the flask was allowed to sit in incubator for ˜4-5 minutes.
When a single cell suspension was obtained, 7 ml of prewarmed growth media was added and resuspended with the cells. The cell suspension was transferred to a sterile 15 ml conical centrifuge tube, and spun for 5 min at 300×g, RT. The supernatant was discarded and the pellet was resuspended in 10 ml of pre-warmed growth media.
The total cell count was determined, and 20 μl of the desired cell number was added to each well of a 384 well plate using a Multidrop Combi. The plates were then incubated for 24 hours at 37° C., 95% rH, and 5% CO2.
Compound treatment: 24 hours after seeding, the cells were treated with compounds.
A 1:333 dilution of compounds, diluted in DMSO, was made to get a final concentration of 0.3% DMSO per well. To transfer the compounds to the assay plate, 120 nl was shot from Labcyte low dead volume plates to the cell plates containing 20 μl media/well with the ECHO 555 liquid handling system.
After treatment, the cells were fed with 20 μl fresh pre-warmed assay media using a Multidrop combi.
The assay plates were then incubated for another 24 h at 37° C., 95% rH, and 5% CO2.
Luciferase readout: 24 h after treatment, the plates were taken out of the incubator and were allowed to equilibrate to RT. 30 μl of NanoGlo® reagent was added to the plates in the dark. Plates were shaken for 20 min on a Teleshake (˜1500 rpm) in the dark. The luminescence was then measured using an EnVision microplate reader. The IC50 values were generated using Genedata Screener®.
`Cn1cc2c3cc(C(=O)N[C@H]4c5ccccc5C[C@@H]4O)ccc3n(-c3ccc(C(F)(F)F)cc3)c2n1` (single isomer, unassigned) [Example B2]: the IC50 was in the range of 100 to 10000 nM. As for `COCC1CCN(C(=O)c2ccc3c(c2)c2cn(C)nc2n3-c2ccc(C(F)(F)F)cc2)C1` (centres unmarked) [Example B51, 3-(methoxymethyl)-1-{2-methyl-8-[4-(trifluoromethyl)phenyl]-2H,8H-pyrazolo[3,4-b]indole-5-carbonyl}pyrrolidine], the figure is 100 to 10000 nM; as for `Cn1cc2c3cc(C(=O)NC4COCC4C4CC4)ccc3n(-c3ccc(C(F)(F)F)cc3)c2n1` (centres unmarked) [B133^], 10 to 100 nM. As for `O=C(O)c1ccc2c(c1)c1cn(Cc3ccccc3)cc1n2-c1ccccc1` [Example 3, 2-Benzyl-4-phenyl-2H,4H-pyrrolo[3,4-b]indole-7-carboxylic acid], the figure is 1 to 10 nM; as for `Cn1cc2c3cc(C(=O)N4CC(O)(Cc5ccn[nH]5)C4)ccc3n(-c3ccc(C(F)(F)F)cc3)c2n1` [Example B47, 1-{2-methyl-8-[4-(trifluoromethyl)-phenyl]-2H,8H-pyrazolo[3,4-b]indole-5-carbonyl}-3-[(1H-pyrazol-5-yl)methyl]azetidin-3-ol], 100 to 10000 nM; as for `Cn1cc2c3cc(C(=O)O)ccc3n(-c3ccc(Cl)cc3)c2n1` [Example 13, 8-(4-chlorophenyl)-2-methyl-2H,8H-pyrazolo[3,4-b]indole-5-carboxylic acid], 100 to 10000 nM. As for `Cn1cc2c3cc(C(=O)N4CCn5nccc5C4CO)ccc3n(-c3ccc(C(F)(F)F)cc3)c2n1` (centres unmarked) [Example B40], the figure is over 10000 nM; as for `Cn1cc2c3cc(C(=O)NC4CCc5cn[nH]c5C4)ccc3n(-c3ccc(C(F)(F)F)cc3)c2n1` (centres unmarked) [Example B25, 2-methyl-N-(4,5,6,7-tetrahydro-1H-indazol-6-yl)-8-[4-(trifluoromethyl)phenyl]-2H,8H-pyrazolo[3,4-b]indole-5-carboxamide], 100 to 10000 nM; as for `CC(NC(=O)c1ccc2c(c1)c1cn(C)nc1n2-c1ccc(C(F)(F)F)cc1)c1cnn(C2CC2)c1` (centres unmarked) [B109^], over 10000 nM. In the case of `Cn1cc2c3cc(C(=O)NC(CCO)c4cncs4)ccc3n(-c3ccc(C(F)(F)F)cc3)c2n1` (centres unmarked) [Example B9, N-[3-hydroxy-1-(1,3-thiazol-5-yl)propyl]-2-methyl-8-[4-(trifluoromethyl)phenyl]-2H,8H-pyrazolo[3,4-b]indole-5-carboxamide], the half-inhibitory concentration (IC50) lay within 10 to 100 nM.

In turn, `Cn1cc2c3cc(C(=O)NCCc4noc(C5CC5)n4)ccc3n(-c3ccc(C(F)(F)F)cc3)c2n1` [B125^] displayed an IC50 of 100 to 10000 nM. As for `Cn1cc2c3cc(C(=O)NCC4CC45CCOC5)ccc3n(-c3ccc(C(F)(F)F)cc3)c2n1` (centres unmarked) [Example B75, 2-methyl-N-({5-oxaspiro[2.4]heptan-1-yl}methyl)-8-[4-(trifluoromethyl)phenyl]-2H,8H-pyrazolo[3,4-b]indole-5-carboxamide], the figure is 100 to 10000 nM.

`COCCC1CN(C(=O)c2ccc3c(c2)c2cn(C)nc2n3-c2ccc(C(F)(F)F)cc2)CCO1` (centres unmarked) [B111^]: the 50% inhibitory concentration (IC50) is over 10000 nM. In turn, `Cn1cc2c3cc(C(=O)N4CC(CO)(n5cccn5)C4)ccc3n(-c3ccc(C(F)(F)F)cc3)c2n1` [B130^] displayed an IC50 of 100 to 10000 nM. In turn, `CC1CN(C(=O)c2ccc3c(c2)c2cn(C)nc2n3-c2ccc(C(F)(F)F)cc2)CC(CCO)O1` (centres unmarked) [Example B33, 2-(6-methyl-4-{2-methyl-8-[4-(trifluoromethyl)phenyl]-2H,8H-pyrazolo[3,4-b]indole-5-carbonyl}morpholin-2-yl)ethan-1-ol] displayed a concentration for half-maximal inhibition (IC50) of 100 to 10000 nM. As for `CN1CCN(C(=O)c2ccc3c(c2)c2cn(C)nc2n3-c2ccc(C(F)(F)F)cc2)CC1CO` (centres unmarked) [Example B65, (1-methyl-4-{2-methyl-8-[4-(trifluoromethyl)phenyl]-2H,8H-pyrazolo[3,4-b]indole-5-carbonyl}piperazin-2-yl)methanol], the figure is over 10000 nM. As for `Cn1cc2c3cc(C(=O)NC4CCCc5c4cnn5C)ccc3n(-c3ccc(C(F)(F)F)cc3)c2n1` (centres unmarked) [Example B37, 2-methyl-N-(1-methyl-4,5,6,7-tetrahydro-1H-indazol-4-yl)-8-[4-(trifluoromethyl)phenyl]-2H,8H-pyrazolo[3,4-b]indole-5-carboxamide], the figure is 100 to 10000 nM. As for `Cn1cc2c3cc(C(=O)N[C@@H]4C[C@H](O)[C@H]4n4cccn4)ccc3n(-c3ccc(C(F)(F)F)cc3)c2n1` (relative stereo) [Example B26, N-[(1R,2S,3S)-3-hydroxy-2-(1H-pyrazol-1-yl)cyclobutyl]-2-methyl-8-[4-(trifluoromethyl)phenyl]-2H,8H-pyrazolo[3,4-b]indole-5-carboxamide], the figure is 100 to 10000 nM; as for `Cn1cc2c3cc(C(=O)N[C@@H]4C[C@@H]5OCCC[C@@H]54)ccc3n(-c3ccc(C(F)(F)F)cc3)c2n1` [B114^], over 10000 nM; as for `Cn1cc2c3cc(C(=O)NCC4(N5CCOCC5)CC4)ccc3n(-c3ccc(C(F)(F)F)cc3)c2n1` [Example B42, 2-methyl-N-{[1-(morpholin-4-yl)cyclopropyl]methyl}-8-[4-(trifluoromethyl)phenyl]-2H,8H-pyrazolo[3,4-b]indole-5-carboxamide], 100 to 10000 nM.

`CCn1cc(CCNC(=O)c2ccc3c(c2)c2cn(C)nc2n3-c2ccc(C(F)(F)F)cc2)nn1` [B105^] came in with a half-maximal inhibitory concentration (IC50) of 100 to 10000 nM. As for `O=C(O)c1ccc2c(c1)c1cn(Cc3ccccc3)cc1n2S(=O)(=O)c1ccccc1` [Example 1, 4-(benzenesulfonyl)-2-benzyl-2H,4H-pyrrolo[3,4-b]indole-7-carboxylic acid], the figure is 100 to 10000 nM.

`Cn1cc2c3cc(C(=O)O)ccc3n(CC3CCCCC3)c2n1` [Example 11, 8-(cyclohexylmethyl)-2-methyl-2H,8H-pyrazolo[3,4-b]indole-5-carboxylic acid] returned an IC50 of 100 to 10000 nM. As for `CC(NC(=O)c1ccc2c(c1)c1cn(C)nc1n2-c1ccc(C(F)(F)F)cc1)c1ccc[nH]1` (centres unmarked) [Example B8, 2-methyl-N-[1-(1H-pyrrol-2-yl)ethyl]-8-[4-(trifluoromethyl)phenyl]-2H,8H-pyrazolo[3,4-b]indole-5-carboxamide], the figure is 100 to 10000 nM; as for `Cn1cc2c3cc(C(=O)NCCc4cc(C5CC5)on4)ccc3n(-c3ccc(C(F)(F)F)cc3)c2n1` [Example B95, N-[2-(5-cyclopropyl-1,2-oxazol-3-yl)ethyl]-2-methyl-8-[4-(trifluoromethyl)phenyl]-2H,8H-pyrazolo[3,4-b]indole-5-carboxamide], 100 to 10000 nM; as for `Cn1cc2c3cc(C(=O)NCc4ncn5c4CCCC5)ccc3n(-c3ccc(C(F)(F)F)cc3)c2n1` [Example B20, N-({5H,6H,7H,8H-imidazo[1,5-a]pyridin-1-yl}methyl)-2-methyl-8-[4-(trifluoromethyl)phenyl]-2H,8H-pyrazolo[3,4-b]indole-5-carboxamide], over 10000 nM. As for `Cn1cc2c3cc(C(=O)NCCc4ocnc4CO)ccc3n(-c3ccc(C(F)(F)F)cc3)c2n1` [Example B67, N-{2-[4-(hydroxymethyl)-1,3-oxazol-5-yl]ethyl}-2-methyl-8-[4-(trifluoromethyl)phenyl]-2H,8H-pyrazolo[3,4-b]indole-5-carboxamide], the figure is 10 to 100 nM. As for `Cc1nc(CCCNC(=O)c2ccc3c(c2)c2cn(C)nc2n3-c2ccc(C(F)(F)F)cc2)n[nH]1` [B121^], the figure is 100 to 10000 nM.

With `Cn1cc2c3cc(C(=O)NC4(c5ncon5)CCC4)ccc3n(-c3ccc(C(F)(F)F)cc3)c2n1` [B117^], the IC50 is 10 to 100 nM. Turning to `CC(NC(=O)c1ccc2c(c1)c1cn(C)nc1n2-c1ccc(C(F)(F)F)cc1)c1nn(C)cc1O` (centres unmarked) [Example B14, N-[1-(4-hydroxy-1-methyl-1H-pyrazol-3-yl)ethyl]-2-methyl-8-[4-(trifluoromethyl)phenyl]-2H,8H-pyrazolo[3,4-b]indole-5-carboxamide], the half-maximal inhibitory concentration (IC50) is 100 to 10000 nM.

With `Cn1cc2c3cc(C(=O)NC(c4ncon4)C4CC4)ccc3n(-c3ccc(C(F)(F)F)cc3)c2n1` (centres unmarked) [Example B31, N-[cyclopropyl(1,2,4-oxadiazol-3-yl)methyl]-2-methyl-8-[4-(trifluoromethyl)phenyl]-2H,8H-pyrazolo[3,4-b]indole-5-carboxamide], the IC50 lay in the range of 10 to 100 nM.

As for `Cn1cc2c3cc(C(=O)N4CCCC4C4CCCO4)ccc3n(-c3ccc(C(F)(F)F)cc3)c2n1` (centres unmarked) [Example B48, 1-{2-methyl-8-[4-(trifluoromethyl)phenyl]-2H,8H-pyrazolo[3,4-b]indole-5-carbonyl}-2-(oxolan-2-yl)pyrrolidine], the IC50 lay in the range of 100 to 10000 nM.
